Reference: PubChem BioAssay (NCI)
Values joined by “and” are separate entries in the source; they are usually repeats but may differ in a detail not shown here. Equal entries are not always repeated.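 All cell lines were grown in 96-well plates and treated with compound for 48 hours. GI50 marks 50% less growth. TGI is the concentration that stops growth completely.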

Key:
Assay in all cases: growth of human tumour cells (NCI), 48 h
MDA-MB-231 breast = test system: MDA-MB-231 breast
SK-OV-3 ovarian = test system: SK-OV-3 ovarian
MCF7 breast = test system: MCF7 breast
SF-295 CNS = test system: SF-295 CNS
EKVX NSCLC = test system: EKVX NSCLC
ACHN renal = test system: ACHN renal
OVCAR-4 ovarian = test system: OVCAR-4 ovarian
OVCAR-3 ovarian = test system: OVCAR-3 ovarian
SK-MEL-2 melanoma = test system: SK-MEL-2 melanoma
A498 renal = test system: A498 renal

Row | Compound | GI50 (MDA-MB-231 breast) | TGI (MDA-MB-231 breast) | GI50 (SK-OV-3 ovarian) | TGI (SK-OV-3 ovarian) | GI50 (MCF7 breast) | TGI (MCF7 breast) | GI50 (SF-295 CNS) | TGI (SF-295 CNS) | GI50 (EKVX NSCLC) | TGI (EKVX NSCLC) | GI50 (ACHN renal) | TGI (ACHN renal) | GI50 (OVCAR-4 ovarian) | TGI (OVCAR-4 ovarian) | GI50 (OVCAR-3 ovarian) | TGI (OVCAR-3 ovarian) | GI50 (SK-MEL-2 melanoma) | TGI (SK-MEL-2 melanoma) | TGI (A498 renal) | GI50 (A498 renal)
1 | COc1c(O)cc2c(c1CC=C(C)C)OC(=O)c1c(cc(O)c(CC=C(C)C)c1O)O2 | 4.23 µM | 8.46 µM | 4.44 µM | 8.01 µM | 6.48 µM | 25 µM | 4.32 µM | 8.13 µM | 4.67 µM | 8.74 µM | 3.93 µM | 7.49 µM | 4.04 µM | 7.61 µM | 3.83 µM | 7.2 µM | 4.38 µM | 8.58 µM |  | 
2 | COC(=O)CCC(=O)C(CC(=O)OC)C(=O)CCC(=O)NCCc1ccccc1 (configuration not stated) |  |  |  | > 100 µM |  |  |  | > 100 µM |  | > 100 µM |  | > 100 µM |  | > 100 µM |  | > 100 µM |  | > 100 µM | > 100 µM | 
3 | COc1ncnn2ccc(-c3cnc4nc(C)n(Cc5nnc(C(C)F)o5)c4c3)c12 (configuration not stated) | 0.278 µM | 27 µM | 0.0716 µM | > 100 µM |  |  | 0.326 µM | 8.04 µM | 0.272 µM | > 36.4 µM | 0.24 µM | > 100 µM | 0.278 µM | 0.995 µM |  |  | 0.0748 µM | 0.236 µM | 0.62 µM | 0.163 µM
4 | S=C1NC(c2ccccc2)=NC(Cc2ccccc2)(c2ccccc2)N1c1ccccc1 (configuration not stated) |  |  |  |  |  |  |  | > 100 µM |  | > 100 µM |  | > 100 µM |  | > 100 µM |  | > 100 µM |  |  | > 100 µM | 
5 | CCC(CO)COC(=O)/C=C/C(=O)OCC(CC)CO (configuration not stated) |  |  |  | > 100 µM |  |  |  | > 100 µM |  | > 100 µM |  | > 100 µM |  | > 100 µM |  | > 100 µM |  | > 100 µM | > 100 µM | 
6 | Cc1cc2c(=O)cc(-c3ccc(O)cc3)oc2c(C(=O)O)c1C |  |  |  | > 100 µM |  |  |  | > 100 µM |  | > 100 µM |  | > 100 µM |  | > 100 µM |  | > 100 µM |  | > 100 µM |  | 
7 | CN1C[C@@H]2CC(=O)CC[C@@H]2C[C@H]1C#N |  |  |  | > 100 µM |  |  |  | > 100 µM |  |  |  | > 100 µM |  | > 100 µM |  | > 100 µM |  | > 100 µM | > 100 µM | 
8 | Cc1ccc(S(=O)OC2c3ccccc3Cc3ccccc32)cc1 (configuration not stated) |  |  |  | 41.9 µM |  |  |  | 62.6 µM |  | 34.5 µM |  | 49 µM |  | 33.2 µM |  | 44.5 µM |  |  | 42.8 µM | 
9 | Cc1cc2c(=O)cc(-c3ccc(Cl)cc3Cl)oc2c(C(=O)O)c1C |  |  |  | > 100 µM |  |  |  | > 100 µM |  | > 100 µM |  | > 100 µM |  | > 100 µM |  | > 100 µM |  | > 100 µM |  | 
10 | Oc1c(CCl)cc(Cl)cc1Cc1cc(Cl)cc(Cc2cc(Cl)cc(CCl)c2O)c1O | 2.64 µM | 7.63 µM | 3.25 µM | 11.4 µM | 2.73 µM | 10.9 µM | 3.66 µM | 34.7 µM | 2.89 µM | 15.8 µM | 3.09 µM | 12.8 µM | 3.1 µM | 64.7 µM | 3.59 µM | 15 µM | 2.16 µM | 6.82 µM |  | 
11 | Cc1ccc(C)c(N2C(=O)C(=O)C(c3nc4ccccc4s3)C(=O)C2=O)c1 |  |  |  | > 100 µM |  |  |  | > 100 µM |  | > 100 µM |  | > 100 µM |  | > 100 µM |  | > 100 µM |  | > 100 µM | > 100 µM | 
12 | COC(=O)c1oc([N+](=O)[O-])c(-c2ccccc2)c1-c1ccccc1 |  |  |  | > 100 µM |  |  |  | > 100 µM |  | > 100 µM |  | > 100 µM |  | > 100 µM |  | > 100 µM |  | > 100 µM | > 100 µM | 
13 | N#CC1(C#N)C2C=CC(C3CC=CC32)C1(C#N)C#N (configuration not stated) |  | 17.2 µM |  | > 50 µM |  |  |  | > 50 µM |  | 24 µM | 8.44 µM | 7.09 µM and 15.3 µM | 9.34 µM | 9.16 µM and 18.7 µM | 6.81 µM | 5.1 µM and 14.5 µM |  | 32.1 µM | 16.9 µM | 
14 | Cn1cnc([N+](=O)[O-])c1Sc1nccn1-c1ccccc1 |  |  |  | > 100 µM |  |  |  | > 100 µM |  | > 100 µM |  | > 100 µM |  | > 100 µM |  | > 100 µM |  | 99.3 µM | > 100 µM | 
15 | CC(=O)NS(=O)(=O)c1ccc(-n2nc(-c3ccccc3)cc2-c2cc(O)ccc2O)cc1 | 39.2 µM | > 100 µM |  |  | > 100 µM | > 100 µM | > 100 µM | > 100 µM | > 100 µM | > 100 µM | > 100 µM | > 100 µM |  |  | > 100 µM | > 100 µM | > 100 µM | > 100 µM |  | 
16 | CC1=CC=C2C(C)(C)CC[C@@H]3OC(=O)[C@H]1[C@]23C |  |  |  | > 100 µM |  |  |  | > 100 µM |  | > 100 µM |  | > 100 µM |  | > 100 µM |  | > 100 µM |  | > 100 µM | > 100 µM | 
17 | COC1OC(CO)C(O)C(NC(=O)N(C)N=O)C1O (configuration not stated) |  |  |  | > 100 µM |  |  |  | > 100 µM |  | > 100 µM |  | > 100 µM |  | > 100 µM |  | > 100 µM |  | > 100 µM | > 100 µM | 
18 | O=C1C2=C(c3ccccc31)C(c1ccccc1Cl)NC(=S)N2 (configuration not stated) |  |  |  | > 100 µM |  |  |  | > 100 µM |  | > 100 µM |  | > 100 µM |  | > 100 µM |  | > 100 µM |  | > 100 µM | > 100 µM | 
19 | O=C(NCCCNc1cc(-c2cn(-c3ccccc3)nc2-c2cccc(O)c2)ccn1)c1ccc(F)cc1 | 2.09 µM | 4.98 µM | 3.39 µM | 24.2 µM | 2.32 µM | 9.92 µM | 1.86 µM | 4.58 µM | 3.7 µM | 69.1 µM | 3.36 µM | 73.6 µM | 3.79 µM | > 100 µM | 4.03 µM | 40.7 µM | 2.18 µM | 5.06 µM |  | 
20 | C=CCC1=C2CCCCC2CCC1=O (configuration not stated) |  |  |  | > 100 µM |  |  |  | > 100 µM |  | > 100 µM |  | > 100 µM |  | > 100 µM |  | > 100 µM |  | > 100 µM | > 100 µM | 
21 | CC(=O)OC1C(COC(N)=O)OC(n2c(-c3ccc(C)cc3)cc(-c3ccccc3)c(C#N)c2=O)C(OC(C)=O)C1OC(C)=O (configuration not stated) |  |  |  | > 100 µM |  |  |  | > 100 µM |  | > 100 µM |  | > 100 µM |  | > 100 µM |  | > 100 µM |  | > 100 µM | > 100 µM | 
22 | CCCCN(CCCC)C(=O)C(=O)C(C(=O)C(=O)OC)c1nc2ccccc2o1 (configuration not stated) |  |  |  | > 100 µM |  |  |  | > 100 µM |  |  |  | > 100 µM |  | > 100 µM |  | > 100 µM |  | > 100 µM | > 100 µM | 
